Source: patent US20140271734A1, “BILE ACID RECYCLING INHIBITORS FOR TREATMENT OF BARRETT'S ESOPHAGUS AND GASTROESOPHAGEAL REFLUX DISEASE” (LUMENA PHARMACEUTICALS, INC., priority 2013, published 2014)
Read-outs that look alike come from different tables or passages of the source. Marks after values point to notes of the source that are not given here.

Legend:
[1] = Toxicokinetics of LUM001 free form, 13-week oral gavage toxicity study in rats; type: in vivo; details: for AUC(0-t) / Cmax / Tmax: rat, plasma, oral; for AUC(0-t): read-out: AUC(0-24 h)
Method: Charles River CD IGS rats were assigned to treatment groups (9sex/toxicokinetic group) and were administered daily doses of 0, 5, 30, 75, and 150 mg/kg (males) or 0, 5, 30, 150, and 500 mg/kg (females). LUM001 was administered by once daily oral gavage in distilled water and fresh dosing solutions were prepared weekly. All animals were dosed with 10 mL/kg/day based on the most recently determined body weights. On Day 1 and during Week 12, approximately 1 mL of venous blood was collected in heparinized tubes from the retro-orbital venous plexus. Animals were anesthetized with CO2-O2 and blood samples were collected at 1, 2, 3, 5, 8, and 24 hours post-dose. Survival permitting, the first 3 animals/sex dose group were bled at 1 and 5 hours post-dose, the second 3 animals/sex/dose group were bled at 2 and 8 hours post-dose, and the last 3 animals/sex/dose group were bled at 3 and 24 hours post-dose. Blood collection tubes were kept on ice during the collection period after which they were centrifuged and the plasma was harvested within approximately 60 minutes of blood collection. Plasma samples were stored at approximately −20° C. or lower until analyzed.
The concentration of LUM001 free form in plasma were determined using an LCMSMS method. The assay sensitivity was 4.75 ng/mL. Means and standard errors of the means (SEM) were calculated for plasma concentrations at each time point. Mean values are significant to three figures and SEM values are significant to the same decimal place as the corresponding mean. Concentration values less than the assay sensitivity (4.75 ng LUM001 free form/mL) were reported as zero. The observed peak plasma concentrations (Cmax) of LUM001 free form, time to reach peak plasma concentration (Tmax) and areas under the plasma concentration-time curve (AUC0-24) were calculated by the TOXAUC computer program (1). For calculation purposes the 0 hr plasma concentrations were set to zero on Day 1 and to the concentrations at 24 hr post dose on Day 78. The TK parameters were calculated from mean data for each group of rats. The bioavailability (% BA) of LUM001 after oral administration of LUM001 was calculated according to the equation below:
% BA=[AUC oral (0-8)/AUC IV(0-8)/Dose oral/Dose IV]×100

[2] = test system: serum total bile acid (SBA); assay: Duration of action of LUM001 on dog SBA, Method 1 (two meals); type: in vivo, beagle dogs; details: 0.2 mg/kg p.o. at 1 hr; full meal 0 hr, half meal 4 hr; 4.5 hr
Method: Male beagle dogs were obtained from Covance Research Products, Cumberland Va. or Marshall Farms USA, Inc., North Rose N.Y. A total of 20 dogs, 1 to 5 years old, 6.8 to 15.6 kg body weight, were used in these experiments. The dogs were conditioned to a 12 hour light/dark cycle and maintained on a feeding restriction of 1 hour per day access to food (Richman Standard Certified Canine Diet #5007, PMI Nutrition, Inc., St. Louis Mo.) from 7 to 8 AM. They were trained to eat a special meal promptly within 20 minutes when presented (1 can. 397 g, Evanger's 100% Beef for Dogs, Evanger's Dog and Cat Food Co., Inc., Wheeling Ill., mixed with 50 g of sharp cheddar cheese.).
SBA was measured by an enzymatic assay. SBA values are expressed as μg of total bile acids/ml of serum.
In dogs a single experimental meal produces a postprandial rise in SBA that is elevated to a peak at 1 hour after feeding and constant for an additional 3 hours. Previous experiments (2) indicate that LUM001 remains active for more than 4.5 hours. To measure the duration of action of an ASBT inhibitor using postprandial SBA levels requires that in the control situation the SBA levels remain elevated and constant for the entire period of compound action, or that the compound be administered long before the postprandial rise occurs, and remain active in the empty digestive system for long periods before feeding. […]

plasma triglycerides = assay: Plasma triglycerides in ZDF rats, week 3; type: in vivo; details: twice daily oral gavage, no dose-related response
[3] = both sexes, CD IGS, Day 1, 150 mg/kg, Comb
[4] = both sexes, Charles River CD IGS, Day 78, 30.0 mg/kg, Comb
[5] = both sexes, Charles River CD IGS, Day 78, 150 mg/kg, Comb
[6] = female, CD IGS, Day 1, 150 mg/kg, F
[7] = female, CD IGS, Day 1, 500 mg/kg, F
[8] = female, Charles River CD IGS, Day 78, 30.0 mg/kg, F
[9] = female, Charles River CD IGS, Day 78, 150 mg/kg, F
[10] = female, Charles River CD IGS, Day 78, 500 mg/kg, F
[11] = male, CD IGS, Day 1, 30.0 mg/kg, M
[12] = male, CD IGS, Day 1, 75.0 mg/kg, M
[13] = male, CD IGS, Day 1, 150 mg/kg, M
[14] = male, Charles River CD IGS, Day 78, 5.0 mg/kg, M
[15] = male, Charles River CD IGS, Day 78, 30.0 mg/kg, M
[16] = male, Charles River CD IGS, Day 78, 75.0 mg/kg, M
[17] = male, Charles River CD IGS, Day 78, 150 mg/kg, M

Structure (SMILES): CCCCC1(CCCC)CS(=O)(=O)c2ccc(N(C)C)cc2[C@@H](c2ccc(OCc3ccc(C[N+]45CCN(CC4)CC5)cc3)cc2)[C@H]1O [LUM001]
- BA ([1]; Day 1, 5.0 mg/kg, F): <0.1%
- BA ([1]; Day 1, 5.0 mg/kg, M): <0.1%
- BA ([1]; Day 1, 30.0 mg/kg, F): <0.1%
- BA ([1]; Day 1, 75.0 mg/kg, M): <0.1%
- BA ([1]; Day 1, 150 mg/kg, Comb): <0.1%
- BA ([1]; Day 1, 500 mg/kg, F): <0.1%
- BA ([1]; Day 78, 5.0 mg/kg, F): <0.1%
- BA ([1]; Day 78, 30.0 mg/kg, Comb): <0.1%
- BA ([1]; Day 78, 75.0 mg/kg, M): <0.1%
- BA ([1]; Day 78, 150 mg/kg, Comb): <0.1%
- BA ([1]; Day 78, 500 mg/kg, F): <0.1%
- AUC(0-t) ([1]; both sexes, CD IGS, 150 mg/kg, Day 1, 150 mg/kg, Comb): 101 ng·h/mL
- Cmax [1, 3]: 37.3 ng/mL
- Tmax [1, 3]: 2 h
- AUC(0-t) ([1]; both sexes, Charles River CD IGS, 30 mg/kg, Day 78, 30.0 mg/kg, Comb): 11.7 ng·h/mL
- AUC(0-t) ([1]; both sexes, Charles River CD IGS, 150 mg/kg, Day 78, 150 mg/kg, Comb): 132 ng·h/mL
- Cmax [1, 4]: 4.35 ng/mL
- Tmax [1, 4]: 3 h
- Cmax [1, 5]: 24.1 ng/mL
- Tmax [1, 5]: 1 h
- AUC(0-t) ([1]; female, CD IGS, 150 mg/kg, Day 1, 150 mg/kg, F): 106 ng·h/mL
- Cmax [1, 6]: 42.4 ng/mL
- Tmax [1, 6]: 2 h
- Cmax [1, 7]: 9.99 ng/mL
- Tmax [1, 7]: 3 h
- AUC(0-t) ([1]; female, Charles River CD IGS, 30 mg/kg, Day 78, 30.0 mg/kg, F): 12.4 ng·h/mL
- AUC(0-t) ([1]; female, Charles River CD IGS, 150 mg/kg, Day 78, 150 mg/kg, F): 124 ng·h/mL
- AUC(0-t) ([1]; female, Charles River CD IGS, 500 mg/kg, Day 1, 500 mg/kg, F): 90.8 ng·h/mL
- AUC(0-t) ([1]; female, Charles River CD IGS, 500 mg/kg, Day 78, 500 mg/kg, F): 470 ng·h/mL
- Cmax [1, 8]: 3.95 ng/mL
- Tmax [1, 8]: 3 h
- Cmax [1, 9]: 22.2 ng/mL
- Tmax [1, 9]: 2 h
- Cmax [1, 10]: 62.9 ng/mL
- Tmax [1, 10]: 3 h
- AUC(0-t) ([1]; male, CD IGS, 30 mg/kg, Day 1, 30.0 mg/kg, M): 15.1 ng·h/mL
- AUC(0-t) ([1]; male, CD IGS, 75 mg/kg, Day 1, 75.0 mg/kg, M): 6.37 ng·h/mL
- AUC(0-t) ([1]; male, CD IGS, 150 mg/kg, Day 1, 150 mg/kg, M): 96.3 ng·h/mL
- Cmax [1, 11]: 8.59 ng/mL
- Tmax [1, 11]: 2 h
- Cmax [1, 12]: 2.55 ng/mL
- Tmax [1, 12]: 5 h
- Cmax [1, 13]: 32.1 ng/mL
- Tmax [1, 13]: 3 h
- AUC(0-t) ([1]; male, Charles River CD IGS, 5 mg/kg, Day 78, 5.0 mg/kg, M): 11.1 ng·h/mL
- AUC(0-t) ([1]; male, Charles River CD IGS, 30 mg/kg, Day 78, 30.0 mg/kg, M): 11.4 ng·h/mL
- AUC(0-t) ([1]; male, Charles River CD IGS, 75 mg/kg, Day 78, 75.0 mg/kg, M): 61.4 ng·h/mL
- AUC(0-t) ([1]; male, Charles River CD IGS, 150 mg/kg, Day 78, 150 mg/kg, M): 141 ng·h/mL
- Cmax [1, 14]: 5.8 ng/mL
- Tmax [1, 14]: 2 h
- Cmax [1, 15]: 4.75 ng/mL
- Tmax [1, 15]: 3 h
- Cmax [1, 16]: 5.71 ng/mL
- Tmax [1, 16]: 8 h
- Cmax [1, 17]: 28.3 ng/mL
- Tmax [1, 17]: 1 h
- Serum Bile Acid, mean [2]: 2.5* μg/ml

Structure (SMILES): CCCC[C@]1(CC)CS(=O)(=O)c2ccc(N(C)C)cc2[C@@H](c2cccc(NC(=O)N[C@@H]3O[C@H](COS(=O)(=O)[O-])[C@@H](O)[C@H](OCc4ccccc4)[C@H]3O)c2)[C@H]1O.CCO.O.[K+] [LUM002, potassium((2R,3R,4S,5R,6R)-4-benzyloxy-6-{3-[3-((3S,4R,5R)-3-butyl-7-dimethylamino-3-ethyl-4-hydroxy-1,1-dioxo-2,3,4,5-tetrahydro-1H-benzo[b]thiepin-5-yl)-phenyl]-ureido}-3,5-dihydroxy-tetrahydro-pyran-2-ylmethyl)sulphate ethanolate, hydrate]
- Fasting plasma triglycerides (plasma triglycerides): statistically significant elevations
